Assay results as given in ChEMBL document CHEMBL1649156, “Antianaerobic activity of sulopenem compared to six other agents” (2009).
≈ marks a conversion by molar mass, not a printed value.

Key:
Type in all cases: functional
[1] = system: Prevotella salivae; test: Antimicrobial activity in Prevotella salivae by CLSI agar dilution method; conditions: Segatella salivae
[2] = system: Prevotella melaninogenica; test: Antimicrobial activity in Prevotella melaninogenica by CLSI agar dilution method
[3] = system: Prevotella bivia; test: Antimicrobial activity in Prevotella bivia by CLSI agar dilution method
[4] = system: Clostridium butyricum; test: Antimicrobial activity in Clostridium butyricum by CLSI agar dilution method
[5] = system: Tissierella praeacuta; test: Antimicrobial activity in Clostridium hastiforme by CLSI agar dilution method
[6] = system: Thomasclavelia ramosa; test: Antimicrobial activity in Clostridium ramosum by CLSI agar dilution method
[7] = system: Bacteroides fragilis; test: Antimicrobial activity in Bacteroides fragilis by CLSI agar dilution method
[8] = system: Finegoldia magna; test: Antimicrobial activity in Finegoldia magna by CLSI agar dilution method
[9] = system: Fusobacterium mortiferum; test: Antimicrobial activity in Fusobacterium mortiferum by CLSI agar dilution method
[10] = system: Fusobacterium varium; test: Antimicrobial activity in Fusobacterium varium by CLSI agar dilution method
[11] = system: Bacteroides uniformis; test: Antimicrobial activity in Bacteroides uniformis by CLSI agar dilution method
[12] = system: Clostridium perfringens; test: Antimicrobial activity in Clostridium perfringens by CLSI agar dilution method
[13] = system: Bacteroides stercoris; test: Antimicrobial activity in Bacteroides stercoris by CLSI agar dilution method
[14] = system: Clostridium tertium; test: Antimicrobial activity in Clostridium tertium by CLSI agar dilution method
[15] = system: Prevotella veroralis; test: Antimicrobial activity in Prevotella veroralis by CLSI agar dilution method
[16] = system: Bifidobacterium; test: Antimicrobial activity in Bifidobacterium by CLSI agar dilution method
[17] = system: Paeniclostridium sordellii; test: Antimicrobial activity in Clostridium sordellii by CLSI agar dilution method; conditions: Paraclostridium sordellii
[18] = system: Prevotella corporis; test: Antimicrobial activity in Prevotella corporis by CLSI agar dilution method
[19] = system: Clostridium sp.; test: Antimicrobial activity in Clostridium sp. by CLSI agar dilution method
[20] = system: Prevotella intermedia; test: Antimicrobial activity in Prevotella intermedia by CLSI agar dilution method
[21] = system: Prevotella bergensis; test: Antimicrobial activity in Prevotella bergensis by CLSI agar dilution method; conditions: Hallella bergensis
[22] = system: Bacteroides ovatus; test: Antimicrobial activity in Bacteroides ovatus by CLSI agar dilution method
[23] = system: Prevotella nigrescens; test: Antimicrobial activity in Prevotella nigrescens by CLSI agar dilution method
[24] = system: Clostridioides difficile; test: Antimicrobial activity in Clostridium difficile by CLSI agar dilution method
[25] = system: Enterocloster clostridioformis; test: Antimicrobial activity in Clostridium clostridioforme by CLSI agar dilution method
[26] = system: Eggerthella lenta; test: Antimicrobial activity in Eggerthella lenta by CLSI agar dilution method
[27] = system: Paraclostridium bifermentans; test: Antimicrobial activity in Clostridium bifermentans by CLSI agar dilution method
[28] = system: Anaerococcus prevotii; test: Antimicrobial activity in Anaerococcus prevotii by CLSI agar dilution method
[29] = system: Parvimonas micra; test: Antimicrobial activity in Micromonas micros by CLSI agar dilution method
[30] = system: Fusobacterium nucleatum; test: Antimicrobial activity in Fusobacterium nucleatum by CLSI agar dilution method
[31] = system: Phocaeicola vulgatus; test: Antimicrobial activity in Bacteroides vulgatus by CLSI agar dilution method
[32] = system: Porphyromonas gingivalis; test: Antimicrobial activity in Porphyromonas gingivalis by CLSI agar dilution method
[33] = system: Prevotella sp.; test: Antimicrobial activity in Prevotella sp.by CLSI agar dilution method
[34] = system: Fusobacterium necrophorum; test: Antimicrobial activity in Fusobacterium necrophorum by CLSI agar dilution method
[35] = system: [Clostridium] innocuum; test: Antimicrobial activity in Clostridium innocuum by CLSI agar dilution method
[36] = system: Peptoniphilus asaccharolyticus; test: Antimicrobial activity in Peptoniphilus asaccharolyticus by CLSI agar dilution method
[37] = system: Anaerococcus tetradius; test: Antimicrobial activity in Anaerococcus tetradius by CLSI agar dilution method
[38] = system: Clostridium cadaveris; test: Antimicrobial activity in Clostridium cadaveris by CLSI agar dilution method
[39] = system: Hoylesella oralis; test: Antimicrobial activity in Prevotella oralis group by CLSI agar dilution method
[40] = system: Actinomyces; test: Antimicrobial activity in Actinomyces by CLSI agar dilution method
[41] = system: Lactobacillus; test: Antimicrobial activity in Lactobacillus by CLSI agar dilution method
[42] = system: Prevotella denticola; test: Antimicrobial activity in Prevotella denticola by CLSI agar dilution method
[43] = system: Prevotella disiens; test: Antimicrobial activity in Prevotella disiens by CLSI agar dilution method
[44] = system: Prevotella buccae; test: Antimicrobial activity in Prevotella buccae by CLSI agar dilution method; conditions: Segatella buccae
[45] = system: Peptostreptococcus anaerobius; test: Antimicrobial activity in Peptostreptococcus anaerobius by CLSI agar dilution method
[46] = system: Hoylesella loescheii; test: Antimicrobial activity in Prevotella loescheii by CLSI agar dilution method
[47] = system: Parabacteroides distasonis; test: Antimicrobial activity in Bacteroides distasonis by CLSI agar dilution method
[48] = system: Bacteroides thetaiotaomicron; test: Antimicrobial activity in Bacteroides thetaiotaomicron by CLSI agar dilution method

`CCC[C@@H]1C[C@@H](C(=O)N[C@@H]([C@H]2O[C@H](SC)[C@H](O)[C@@H](O)[C@H]2O)[C@H](C)Cl)N(C)C1` [CLINDAMYCIN] showed an MIC [1] of at most 0.016 µg/mL, an MIC [2] of at most 0.016 µg/mL and an MIC50 [2] of at most 0.016 µg/mL. It also gave an MIC90 [2] of 0.06 µg/mL (≈ 0.141 µM), an MIC50 [3] of at most 0.016 µg/mL and an MIC90 [3] of over 32 µg/mL. It also gave an MIC [4] of 2 µg/mL (≈ 4.71 µM), an MIC [5] of 0.06 µg/mL (≈ 0.141 µM) and an MIC [6] of 2 µg/mL (≈ 4.71 µM). The MIC50 [7] was 1 µg/mL (≈ 2.35 µM), the MIC90 [7] was over 32 µg/mL and the MIC50 [8] was 0.125 µg/mL (≈ 0.294 µM). The MIC90 [8] was 2 µg/mL (≈ 4.71 µM), the MIC50 [9] was 0.06 µg/mL (≈ 0.141 µM) and the MIC90 [9] was 0.125 µg/mL (≈ 0.294 µM). For the same molecule, the MIC50 [10] was 8 µg/mL (≈ 18.8 µM), the MIC90 [10] was 32 µg/mL (≈ 75.3 µM) and the MIC [11] was over 1 µg/mL. The MIC50 [11] was 2 µg/mL (≈ 4.71 µM), the MIC50 [12] was 0.5 µg/mL (≈ 1.18 µM) and the MIC90 [12] was 2 µg/mL (≈ 4.71 µM). The MIC [13] was over 4 µg/mL, the MIC50 [13] was 8 µg/mL (≈ 18.8 µM) and the MIC [14] was 8 µg/mL (≈ 18.8 µM). The MIC50 [14] was 8 µg/mL (≈ 18.8 µM), the MIC [15] was at most 0.016 µg/mL and the MIC50 [16] was 0.03 µg/mL (≈ 0.0706 µM). For the same molecule, the MIC90 [16] was over 32 µg/mL, the MIC [17] was 0.25 µg/mL (≈ 0.588 µM) and the MIC50 [18] was at most 0.016 µg/mL. For the same molecule, the MIC50 [19] was 1 µg/mL (≈ 2.35 µM), the MIC90 [19] was 16 µg/mL (≈ 37.6 µM) and the MIC [20] was at most 0.016 µg/mL. It also gave an MIC50 [20] of at most 0.016 µg/mL, an MIC90 [20] of at most 0.016 µg/mL and an MIC [21] of at most 0.016 µg/mL. It also gave an MIC50 [22] of 2 µg/mL (≈ 4.71 µM), an MIC90 [22] of over 32 µg/mL and an MIC [23] of at most 0.016 µg/mL. For the same molecule, the MIC50 [23] was at most 0.016 µg/mL, the MIC90 [23] was at most 0.016 µg/mL and the MIC50 [24] was 4 µg/mL (≈ 9.41 µM). It also gave an MIC90 [24] of over 32 µg/mL, an MIC [25] of 0.03 µg/mL (≈ 0.0706 µM) and an MIC50 [26] of 0.25 µg/mL (≈ 0.588 µM). The MIC90 [26] was 1 µg/mL (≈ 2.35 µM), the MIC [27] was 0.125 µg/mL (≈ 0.294 µM) and the MIC [28] was 0.125 µg/mL (≈ 0.294 µM). It also gave an MIC [29] of 0.125 µg/mL (≈ 0.294 µM), an MIC50 [29] of 0.125 µg/mL (≈ 0.294 µM) and an MIC90 [29] of 0.25 µg/mL (≈ 0.588 µM). For the same molecule, the MIC50 [30] was 0.06 µg/mL (≈ 0.141 µM), the MIC90 [30] was 0.125 µg/mL (≈ 0.294 µM) and the MIC50 [31] was 0.03 µg/mL (≈ 0.0706 µM). For the same molecule, the MIC90 [31] was 1 µg/mL (≈ 2.35 µM), the MIC [32] was at most 0.016 µg/mL and the MIC [33] was at most 0.016 µg/mL. It also gave an MIC [34] of at most 0.016 µg/mL, an MIC50 [34] of 0.03 µg/mL (≈ 0.0706 µM) and an MIC [35] of 0.03 µg/mL (≈ 0.0706 µM). The MIC [36] was 0.06 µg/mL (≈ 0.141 µM), the MIC50 [36] was 0.125 µg/mL (≈ 0.294 µM) and the MIC50 [37] was 0.5 µg/mL (≈ 1.18 µM). It also gave an MIC90 [37] of 1 µg/mL (≈ 2.35 µM), an MIC [38] of 0.06 µg/mL (≈ 0.141 µM) and an MIC [39] of at most 0.016 µg/mL. It also gave an MIC [40] of 0.03 µg/mL (≈ 0.0706 µM), an MIC50 [40] of 0.125 µg/mL (≈ 0.294 µM) and an MIC50 [41] of 0.5 µg/mL (≈ 1.18 µM). It also gave an MIC90 [41] of 4 µg/mL (≈ 9.41 µM), an MIC [42] of at most 0.016 µg/mL and an MIC50 [42] of at most 0.016 µg/mL. It also gave an MIC90 [42] of 0.06 µg/mL (≈ 0.141 µM), an MIC [43] of at most 0.016 µg/mL and an MIC50 [43] of at most 0.016 µg/mL. The MIC [44] was at most 0.016 µg/mL, the MIC50 [44] was at most 0.016 µg/mL and the MIC90 [44] was at most 0.016 µg/mL. It also gave an MIC [45] of at most 0.016 µg/mL, an MIC50 [45] of at most 0.016 µg/mL and an MIC90 [45] of 0.25 µg/mL (≈ 0.588 µM). It also gave an MIC [46] of at most 0.016 µg/mL, an MIC50 [47] of 4 µg/mL (≈ 9.41 µM) and an MIC90 [47] of 16 µg/mL (≈ 37.6 µM). The MIC50 [48] was 4 µg/mL (≈ 9.41 µM) and the MIC90 [48] was over 32 µg/mL.
